Measurements: ChEMBL document CHEMBL5506004, “Optimizing drug-like properties of selective butyrylcholinesterase inhibitors for cognitive improvement: Enhancing aqueous solubility by disrupting molecular plane” (Eur J Med Chem, 2024)
In brackets after ≈: the same amount, converted by molar mass. Activity calls are given as the source filed them. The rule behind the calls is not given here.

Columns and labels:
Cholinesterase [1] = biological target: Cholinesterase (Equus caballus, UniProt P81908); experiment: Inhibition of horse serum BChE using BTC iodide as substrate preincubated for 5 mins followed by substrate addition measured after 2 mins by Ellman's method
[2] = Solubility of compound in FaSSIF incubated for 24 hrs by HPLC analysis; format: ADME
[3] = AUC (0 to t) in Sprague-Dawley rat at 10 mg/kg, po measured for 1 to 1440 mins by LC-MS/MS analysis; format: ADME, organism-based; conditions: in vivo, time 1-1440 min
[4] = AUC (0 to infinity) in Sprague-Dawley rat at 10 mg/kg, po measured for 1 to 1440 mins by LC-MS/MS analysis; format: ADME, organism-based; conditions: in vivo, time 1-1440 min
[5] = MRT (infinity) in Sprague-Dawley rat at 10 mg/kg, po measured for 1 to 1440 mins by LC-MS/MS analysis; format: ADME, organism-based; conditions: in vivo, time 1-1440 min
[6] = Half life in Sprague-Dawley rat at 10 mg/kg, po measured for 1 to 1440 mins by LC-MS/MS analysis; format: ADME, organism-based; conditions: in vivo, time 1-1440 min
[7] = Tmax in Sprague-Dawley rat at 10 mg/kg, po measured for 1 to 1440 mins by LC-MS/MS analysis; format: ADME, organism-based; conditions: in vivo, time 1-1440 min
[8] = Cmax in Sprague-Dawley rat at 10 mg/kg, po measured for 1 to 1440 mins by LC-MS/MS analysis; format: ADME, organism-based; conditions: in vivo, po, 10 mg/kg, time 1-1440 min
[9] = Oral bioavailability in Sprague-Dawley rat at 10 mg/kg measured for 1 to 1440 mins by LC-MS/MS analysis; format: ADME, organism-based; conditions: in vivo, time 1-1440 min
[10] = Metabolic stability in human liver microsomes assessed as compound remaining at 2 uM measured after 12.8 mins by LC-MS/MS analysis; format: ADME, Microsome; conditions: read-out: Activity
Cholinesterase [11] = biological target: Cholinesterase (Homo sapiens, UniProt P06276); experiment: Inhibition of human BChE using BTC iodide as substrate preincubated for 5 mins followed by substrate addition measured after 2 mins by Ellman's method
HT-22 [12] = experiment: Cytotoxicity against mouse HT-22 cells assessed as survival rate at 100 uM incubated for 24 hrs by MTT assay relative to control; format: functional; conditions: read-out: Survival
PC-12 [13] = experiment: Cytotoxicity against rat PC12 cells assessed as survival rate at 100 uM incubated for 24 hrs by MTT assay relative to control; format: functional; conditions: read-out: Survival
[14] = Cytotoxicity against human L02 cells assessed as survival rate at 100 uM incubated for 24 hrs by MTT assay relative to control; format: toxicity, cell-based; conditions: read-out: Survival
BV-2 [15] = experiment: Cytotoxicity against mouse BV-2 cells assessed as survival rate incubated for 24 hrs by MTT assay; format: functional, cell-based; conditions: BV-2, 24 h
SH-SY5Y [16] = experiment: Cytotoxicity against human SH-SY5Y cells assessed as survival rate incubated for 24 hrs by MTT assay; format: functional, cell-based
[17] = Acute toxicity in ICR mouse assessed as animal death at 1 g/kg, IG; conditions: in vivo, po, 1000 mg/kg
[18] = Acute toxicity in ICR mouse assessed as animal growth at 1 g/kg, IG; conditions: in vivo, po, 1000 mg/kg
PC-12 [19] = experiment: Neuroprotective activity in rat PC12 cells assessed as cell viability pretreated for 2 hrs followed by H2O2 addition measured after 24 hrs by MTT assay; format: functional, cell-based; conditions: time 26.0 hrs
HT-22 [20] = experiment: Neuroprotective activity against glutamate-induced excitotoxicity in mouse HT-22 cells assessed as cell viability at 1 to 10 uM pretreated for 1 hr followed by glutamate addition measured after 24 hrs by MTT assay; format: functional, cell-based; conditions: dose 1-10 µM, time 25.0 hrs
[21] = Metabolic stability in human liver microsomes assessed as compound metabolism at 2 uM measured for 60 mins by LC-MS/MS analysis; format: ADME, Microsome; conditions: read-out: Drug metabolism
[22] = Permeability of compound at 50 ug/ml incubated for 18 hrs by PAMPA; format: ADME; conditions: dose 50 µg/ml, read-out: permeability
Mus musculus [23] = experiment: Cognitive enhancing effect in Amyloid beta (1 to 42)-treated ICR mouse assessed as reduction in trajectory uncertainty at 10 mg/kg, po administered daily measured after 7 to 12 days by Morris water maze test; format: functional, organism-based; conditions: time 7-12 day
Mus musculus [24] = experiment: Cognitive enhancing effect in Amyloid beta (1 to 42)-treated ICR mouse assessed as shorter arrival time at 10 mg/kg, po administered daily measured after 7 to 12 days by Morris water maze test; format: functional, organism-based; conditions: time 7-12 day
BV-2 [25] = experiment: Cytotoxicity against mouse BV-2 cells assessed as survival rate at 100 uM incubated for 24 hrs by MTT assay relative to control; format: functional; conditions: read-out: Survival
SH-SY5Y [26] = experiment: Cytotoxicity against human SH-SY5Y cells assessed as survival rate at 100 uM incubated for 24 hrs by MTT assay relative to control; format: functional; conditions: read-out: Survival
SH-SY5Y [27] = experiment: Neuroprotective activity against amyloid beta (1 to 42)-induced neuronal death in human SH-SY5Y cells assessed as cell viability pretreated for 1 hr followed by amyloid beta (1 to 42) addition measured after 24 hrs by MTT assay; format: functional, cell-based; conditions: dose 1-10 µM, time 25.0 hrs

Cholinesterase (Homo sapiens, UniProt P06276), sequence (P06276 whole entry): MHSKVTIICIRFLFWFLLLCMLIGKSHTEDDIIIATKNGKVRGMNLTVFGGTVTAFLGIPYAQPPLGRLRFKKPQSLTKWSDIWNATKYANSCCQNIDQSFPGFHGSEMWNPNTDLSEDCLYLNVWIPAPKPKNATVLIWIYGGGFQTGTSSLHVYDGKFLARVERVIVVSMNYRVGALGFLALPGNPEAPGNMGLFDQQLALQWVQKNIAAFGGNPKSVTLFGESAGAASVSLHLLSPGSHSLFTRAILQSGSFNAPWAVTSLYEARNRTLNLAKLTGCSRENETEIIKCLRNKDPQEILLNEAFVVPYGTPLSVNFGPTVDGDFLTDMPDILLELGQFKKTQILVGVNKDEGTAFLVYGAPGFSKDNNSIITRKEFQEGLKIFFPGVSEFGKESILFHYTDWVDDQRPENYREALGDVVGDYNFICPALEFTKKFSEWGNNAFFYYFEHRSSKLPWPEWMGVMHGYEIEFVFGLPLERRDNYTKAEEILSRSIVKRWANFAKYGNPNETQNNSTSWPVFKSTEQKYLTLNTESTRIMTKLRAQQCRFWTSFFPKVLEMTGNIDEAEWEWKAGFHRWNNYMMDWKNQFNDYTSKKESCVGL
Cholinesterase (Equus caballus, UniProt P81908), sequence (P81908 whole entry): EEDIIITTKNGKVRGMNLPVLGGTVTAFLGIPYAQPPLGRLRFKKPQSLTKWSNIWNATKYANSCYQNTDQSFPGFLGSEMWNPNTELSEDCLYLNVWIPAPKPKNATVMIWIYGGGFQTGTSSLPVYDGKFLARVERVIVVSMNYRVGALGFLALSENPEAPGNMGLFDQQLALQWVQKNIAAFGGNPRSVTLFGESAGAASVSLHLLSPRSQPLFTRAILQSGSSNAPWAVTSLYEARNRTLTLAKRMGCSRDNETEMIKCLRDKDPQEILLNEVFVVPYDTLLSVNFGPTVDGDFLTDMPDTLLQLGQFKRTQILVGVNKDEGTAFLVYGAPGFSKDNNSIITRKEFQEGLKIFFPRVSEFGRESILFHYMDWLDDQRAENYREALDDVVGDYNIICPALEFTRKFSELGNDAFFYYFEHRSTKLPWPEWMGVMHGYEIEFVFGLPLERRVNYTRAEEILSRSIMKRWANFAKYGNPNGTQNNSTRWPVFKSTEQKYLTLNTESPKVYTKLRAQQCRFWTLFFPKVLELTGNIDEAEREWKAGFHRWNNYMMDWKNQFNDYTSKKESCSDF

SMILES | IC50 (Cholinesterase [1]) [nM] | solubility at 24 h [2] [µM] | other results
CN1CCN(c2ccc(NC(=O)Cn3c(-c4nonc4N)nc4ccccc43)cc2)CC1 | 92.3 | 1360 (≈ 588 µg/mL) | –
CN1CCN(c2ccccc2NC(=O)Cn2c(-c3nonc3N)nc3ccccc32)CC1 | 524 | 483 (≈ 209 µg/mL) | –
Nc1nonc1-c1nc2ccccc2n1CC(=O)Nc1cccc(C(=O)O)c1 | 1970 | ≥ 5290 | –
Nc1nonc1-c1nc2ccccc2n1CC(=O)Nc1cccc(N2CCOCC2)c1 | 49.5 | 1270 (≈ 534 µg/mL) | –
N#Cc1cc(Br)cc(NC(=O)Cn2c(-c3nonc3N)nc3ccccc32)c1 | – | 379 (≈ 166 µg/mL) | AUC(0-t) [3]: 3360 ng·h/mL; AUC(0-inf) [4]: 3780 ng·h/mL; MRT inf [5]: 7.37 h; half-life [6]: 4.74 h; Tmax [7]: 0.18 h; Cmax [8]: 975.05 ng/mL; bioavailability [9]: 23.6%
C[C@]12CC[C@H]3[C@@H](CCC4=CC(=O)CC[C@@]43C)[C@@H]1CC[C@@H]2O [TESTOSTERONE] | – | – | remaining at 0.2133 h, 2 µM [10]: 50%
CN1CCN(c2cccc(NC(=O)Cn3c(-c4nonc4N)nc4ccccc43)c2)CC1 | 19.4 | 2820 (≈ 1220 µg/mL) | IC50 (Cholinesterase [11]): 121 nM; viability at 100 µM (HT-22 [12]): 89.5%; viability at 100 µM (PC-12 [13]): 82.6%; viability at 24 h, 100 µM [14]: 102%; IC50 (BV-2 [15]): 17000 nM; IC50 (SH-SY5Y [16]): 10300 nM; Activity [17]: Non-Toxic; Activity [18]: Non-Toxic; Activity (PC-12 [19]): Dose-Dependent Effect; Activity (HT-22 [20]): Active; metabolised at 1 h, 2 µM [21]: < 15%; Papp at 18 h, 50 ug/ml [22]: 3.57 ×10⁻⁶ cm/s
COC(=O)c1ccnc(NC(=O)Cn2c(-c3nonc3N)nc3ccccc32)c1 | 33.1 | 175 (≈ 68.8 µg/mL) | –
Nc1nonc1-c1nc2ccccc2n1CC(=O)Nc1ccc(N2CCOCC2)cc1 | 481 | 861 (≈ 361 µg/mL) | –
CN1CCN(C(=O)c2ccc(NC(=O)Cn3c(-c4nonc4N)nc4ccccc43)cc2)CC1 | 84 | 1020 (≈ 471 µg/mL) | –
Nc1nonc1-c1nc2ccccc2n1CC(=O)Nc1ccccn1 | 1320 | 322 (≈ 108 µg/mL) | –
Nc1nonc1-c1nc2ccccc2n1CC(=O)Nc1ccncc1 | 172 | 474 (≈ 159 µg/mL) | –
CN1CCN(C(=O)Cc2ccc(NC(=O)Cn3c(-c4nonc4N)nc4ccccc43)cc2)CC1 | 609 | 1770 (≈ 842 µg/mL) | –
Nc1nonc1-c1nc2ccccc2n1CC(=O)Nc1cccnc1 | 154 | 373 (≈ 125 µg/mL) | –
CN1CCN(Cc2ccc(NC(=O)Cn3c(-c4nonc4N)nc4ccccc43)cc2)CC1 | 99.8 | 2660 (≈ 1190 µg/mL) | –
Nc1nonc1-c1nc2ccccc2n1CC(=O)NC1CCCCC1 | 3520 | 232 (≈ 79 µg/mL) | –
COc1cc2c(cc1OC)C(=O)C(CC1CCN(Cc3ccccc3)CC1)C2 (configuration not stated) | – | – | Activity (Mus musculus [23]): Active; Activity (Mus musculus [24]): Active

SMILES | IC50 (Cholinesterase [1]) [nM] | solubility at 24 h [2] [µM] | other results
Nc1nonc1-c1nc2ccccc2n1CC(=O)Nc1cnc2ccccc2c1 | – | 231 (≈ 89 µg/mL) | Tmax [7]: 0.158 h
Nc1nonc1-c1nc2ccccc2n1CC(=O)Nc1cncc(Br)c1 | 15.4 | 476 (≈ 197 µg/mL) | IC50 (Cholinesterase [11]): 119 nM
Nc1nonc1-c1nc2ccccc2n1CC(=O)Nc1cccc(N2CCCCC2)c1 | 4.71 | 74.3 (≈ 31 µg/mL) | IC50 (Cholinesterase [11]): 21.2 nM
Nc1nonc1-c1nc2ccccc2n1CC(=O)Nc1cncc(Cl)c1 | 31.6 | 462 (≈ 171 µg/mL) | –
Nc1nonc1-c1nc2ccccc2n1CC(=O)Nc1ccc(CN2CCOCC2)cc1 | 14 | 3050 (≈ 1320 µg/mL) | IC50 (Cholinesterase [11]): 106 nM; viability at 100 µM (BV-2 [25]): 78.2%; viability at 100 µM (HT-22 [12]): 66.5%; viability at 100 µM (PC-12 [13]): 101%; viability at 100 µM (SH-SY5Y [26]): 131%; viability at 24 h, 100 µM [14]: 114%; Activity [17]: Non-Toxic; Activity [18]: Non-Toxic; Activity (PC-12 [19]): Dose-Dependent Effect; Activity (SH-SY5Y [27]): Dose-Dependent Effect; metabolised at 1 h, 2 µM [21]: < 15%; Papp at 18 h, 50 ug/ml [22]: 5.38 ×10⁻⁶ cm/s
COC(=O)c1cncc(NC(=O)Cn2c(-c3nonc3N)nc3ccccc32)c1 | 43 | 211 (≈ 83 µg/mL) | –
Nc1nonc1-c1nc2ccccc2n1CC(=O)Nc1cncc(C(F)(F)F)c1 | 94.5 | 660 (≈ 266 µg/mL) | –
Nc1nonc1-c1nc2ccccc2n1CC(=O)Nc1ccc(CC(=O)N2CCOCC2)cc1 | 123 | 951 (≈ 439 µg/mL) | –
CN1CCN(C(=O)Cc2cccc(NC(=O)Cn3c(-c4nonc4N)nc4ccccc43)c2)CC1 | 1940 | 1330 (≈ 631 µg/mL) | –
Nc1c2c(nc3ccccc13)CCCC2 [TACRINE] | – | 1440 (≈ 285 µg/mL) | –
Nc1nonc1-c1nc2ccccc2n1CC(=O)Nc1ccc(C(=O)N2CCOCC2)cc1 | 67 | 467 (≈ 209 µg/mL) | –
Nc1nonc1-c1nc2ccccc2n1CC(=O)Nc1cncc(F)c1 | 99.4 | 512 (≈ 181 µg/mL) | –
Nc1nonc1-c1nc2ccccc2n1CC(=O)Nc1cccc(N2CCCC2)c1 | 5.57 | 104 (≈ 42 µg/mL) | IC50 (Cholinesterase [11]): 2.26 nM
Nc1nonc1-c1nc2ccccc2n1CC(=O)Nc1cccc(CC(=O)N2CCOCC2)c1 | 193 | 728 (≈ 336 µg/mL) | –
Nc1nonc1-c1nc2ccccc2n1CC(=O)Nc1ccc(N2CCCCC2)cc1 | 168 | 86.2 (≈ 36 µg/mL) | –
Nc1nonc1-c1nc2ccccc2n1CC(=O)Nc1ccccc1N1CCOCC1 | 2470 | 536 (≈ 225 µg/mL) | –
